Results: ChEMBL document CHEMBL1150460, “Synthesis and 5-HT3 receptor antagonist potency of novel (endo) 3,9-diazabicyclo[3.3.1]nonan-7-amino derivatives” (Bioorg Med Chem Lett, 1994)

Tests used:
[1] = biological target: T1, Serotonin 3 (5-HT3) receptor (Rattus norvegicus, UniProt P35563+Q9JJ16); experiment: Displacement of [3H]granisetron from 5-hydroxytryptamine 3 receptor of rat cortex
T1 sequence (P35563 whole entry): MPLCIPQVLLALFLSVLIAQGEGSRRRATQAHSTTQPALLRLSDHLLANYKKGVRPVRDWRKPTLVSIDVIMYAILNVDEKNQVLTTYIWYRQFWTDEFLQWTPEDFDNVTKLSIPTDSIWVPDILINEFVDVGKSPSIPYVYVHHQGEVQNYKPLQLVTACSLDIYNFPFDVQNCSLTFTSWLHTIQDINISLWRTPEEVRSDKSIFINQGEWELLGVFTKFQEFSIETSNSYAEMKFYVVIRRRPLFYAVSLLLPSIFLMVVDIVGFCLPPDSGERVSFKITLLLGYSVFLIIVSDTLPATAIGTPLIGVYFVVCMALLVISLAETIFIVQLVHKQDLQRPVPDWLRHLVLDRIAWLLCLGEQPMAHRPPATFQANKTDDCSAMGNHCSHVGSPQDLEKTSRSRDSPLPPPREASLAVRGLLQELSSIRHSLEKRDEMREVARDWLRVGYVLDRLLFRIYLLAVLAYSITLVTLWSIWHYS
T1 sequence (Q9JJ16 whole entry): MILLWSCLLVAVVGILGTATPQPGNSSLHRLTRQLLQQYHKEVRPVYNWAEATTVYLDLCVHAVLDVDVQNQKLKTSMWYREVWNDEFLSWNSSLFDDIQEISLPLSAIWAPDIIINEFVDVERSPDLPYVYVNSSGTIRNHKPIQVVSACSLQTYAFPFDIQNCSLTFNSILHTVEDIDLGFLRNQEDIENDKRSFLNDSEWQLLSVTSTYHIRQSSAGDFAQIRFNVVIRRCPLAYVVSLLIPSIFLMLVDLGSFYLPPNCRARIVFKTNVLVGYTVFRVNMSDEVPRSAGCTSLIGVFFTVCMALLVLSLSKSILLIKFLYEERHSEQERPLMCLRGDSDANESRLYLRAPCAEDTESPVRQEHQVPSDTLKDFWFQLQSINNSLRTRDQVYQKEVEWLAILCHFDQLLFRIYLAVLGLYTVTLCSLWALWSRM

[2] = biological target: Serotonin 3 (5-HT3) receptor (Rattus norvegicus) (UniProt P35563+Q9JJ16); experiment: Inhibition of the von Bezold-Jarisch reflex bradycardia induced by an iv bolus injection of 5-HT; type: functional, organism-based

CCN1CC2CC(NC(=O)N3CC(C)(C)c4ccccc43)CC(C1)N2C (stereo not drawn)
Ki [1]: 2.51 nM | Inhibitory dose [2]: 0.6 µg/kg

CC(=O)N1CC2CC(NC(=O)N3CC(C)(C)c4ccccc43)CC(C1)N2C (stereo not drawn)
Ki [1]: 3.98 nM

CN1C2CCCC1CC(NC(=O)c1nn(C)c3ccccc13)C2 (stereo not drawn)
Inhibitory dose [2]: 0.7 µg/kg

CN1C2CC(NC(=O)N3CC(C)(C)c4ccccc43)CC1CN(Cc1ccccc1)C2 (stereo not drawn)
Inhibitory dose [2]: 1.8 µg/kg

CCCN1CC2CC(NC(=O)c3nn(C)c4ccccc34)CC(C1)N2C (stereo not drawn)
Ki [1]: 3.16 nM

CCCCN1CC2CC(NC(=O)N3CC(C)(C)c4ccccc43)CC(C1)N2C (stereo not drawn)
Ki [1]: 20 nM

CN1C2CC(NC(=O)c3nn(C)c4ccccc34)CC1CN(c1ccccc1)C2 (stereo not drawn)
Inhibitory dose [2]: 3 µg/kg

COc1cc(N)c(Cl)cc1C(=O)NC1CC2CN(C)CC(C1)N2C (stereo not drawn)
Inhibitory dose [2]: 2.5 µg/kg

CN1CC2CC(NC(=O)N3CC(C)(C)c4ccccc43)CC(C1)N2C (stereo not drawn)
Ki [1]: 1 nM

CC(C)N1CC2CC(NC(=O)c3nn(C)c4ccccc34)CC(C1)N2C (stereo not drawn)
Ki [1]: 0.794 nM | Inhibition [2]: 0.65 µg/kg

CN1C2CNCC1CC(NC(=O)N1CC(C)(C)c3ccccc31)C2 (stereo not drawn)
Ki [1]: 1 nM

CCCCN1CC2CC(NC(=O)c3nn(C)c4ccccc34)CC(C1)N2C (stereo not drawn)
Ki [1]: 2.51 nM

CCN1CC2CC(NC(=O)c3nn(C)c4ccccc34)CC(C1)N2C (stereo not drawn)
Ki [1]: 1.58 nM | Inhibitory dose [2]: 0.8 µg/kg

CC(C)CN1CC2CC(NC(=O)c3nn(C)c4ccccc34)CC(C1)N2C (stereo not drawn)
Ki [1]: 3.16 nM

CN1C2CC(NC(=O)c3nn(C)c4ccccc34)CC1CN(Cc1ccccc1)C2 (stereo not drawn)
Ki [1]: 0.501 nM | Inhibitory dose [2]: 0.16 µg/kg

CC(C)N1CC2CC(NC(=O)N3CC(C)(C)c4ccccc43)CC(C1)N2C (stereo not drawn)
Ki [1]: 1.26 nM | Inhibitory dose [2]: 0.43 µg/kg

COc1cc(N)c(Cl)cc1C(=O)NC1CC2CN(Cc3ccccc3)CC(C1)N2C (stereo not drawn)
Inhibitory dose [2]: 0.5 µg/kg

CN1C2CC(NC(=O)N3CC(C)(C)c4ccccc43)CC1CN(C(=O)c1ccccc1)C2 (stereo not drawn)
Ki [1]: 10 nM
